According to PubChem BioAssay AID2060611 (Molecular Pharmacology Branch, DTP, NCI, 2025):
Values joined by “and” are separate entries in the source; they are usually repeats but may differ in a detail not shown here. Equal entries are not always repeated.

System: 628569-122-R-J1-PDC complex spheroid viability
Experiment: Anticancer human tumor 628569-122-R-J1-PDC patient-derived head and neck squamous carcinoma cell line growth inhibition [CLK]
Conditions: for viability, T/C: stronger effect = lower value; active = viability on the fitted dose curve at most 10% of control; inactive = the rest
How it was run: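 Multi-cell-type spheroids combined patient-derived tumor cells with HUVEC endothelial cells and human mesenchymal stem cells. Paired agents were dosed in half-log steps down from about clinical Cmax, or from 10 microM where Cmax was unknown.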

[1] = curve of first compound, second compound 0.0316 µM
[2] = curve of first compound, second compound 0.1 µM
[3] = curve of first compound, second compound 0.316 µM
[4] = curve of first compound, second compound 1 µM
[5] = curve of first compound, second compound 3.16 µM
[6] = curve of first compound, second compound 10 µM
[7] = second compound 0.0316 µM, first compound 0.00316 µM
[8] = second compound 0.0316 µM, first compound 0.01 µM
[9] = second compound 0.0316 µM, first compound 0.0316 µM
[10] = second compound 0.0316 µM, first compound 0.1 µM
[11] = second compound 0.0316 µM, first compound 0.316 µM
[12] = second compound 0.0316 µM, first compound 1 µM
[13] = second compound 0.1 µM, first compound 0.00316 µM
[14] = second compound 0.1 µM, first compound 0.01 µM
[15] = second compound 0.1 µM, first compound 0.0316 µM
[16] = second compound 0.1 µM, first compound 0.1 µM
[17] = second compound 0.1 µM, first compound 0.316 µM
[18] = second compound 0.1 µM, first compound 1 µM
[19] = second compound 0.316 µM, first compound 0.00316 µM
[20] = second compound 0.316 µM, first compound 0.01 µM
[21] = second compound 0.316 µM, first compound 0.0316 µM
[22] = second compound 0.316 µM, first compound 0.1 µM
[23] = second compound 0.316 µM, first compound 0.316 µM
[24] = second compound 0.316 µM, first compound 1 µM
[25] = second compound 1 µM, first compound 0.00316 µM
[26] = second compound 1 µM, first compound 0.01 µM
[27] = second compound 1 µM, first compound 0.0316 µM
[28] = second compound 1 µM, first compound 0.1 µM
[29] = second compound 1 µM, first compound 0.316 µM
[30] = second compound 1 µM, first compound 1 µM
[31] = second compound 3.16 µM, first compound 0.00316 µM
[32] = second compound 3.16 µM, first compound 0.01 µM
[33] = second compound 3.16 µM, first compound 0.0316 µM
[34] = second compound 3.16 µM, first compound 0.1 µM
[35] = second compound 3.16 µM, first compound 0.316 µM
[36] = second compound 3.16 µM, first compound 1 µM
[37] = second compound 10 µM, first compound 0.00316 µM
[38] = second compound 10 µM, first compound 0.01 µM
[39] = second compound 10 µM, first compound 0.0316 µM
[40] = second compound 10 µM, first compound 0.1 µM
[41] = second compound 10 µM, first compound 0.316 µM
[42] = second compound 10 µM, first compound 1 µM
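Also: spheroids exposed to agents for seven days before readout.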
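For viability, T/C in this document: 100% = DMSO vehicle control viability.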

CCc1c2c(nc3ccc(O)cc13)-c1cc3c(c(=O)n1C2)COC(=O)[C@]3(O)CC + CN1CCN(c2cc(C(=O)Nc3cc4cc(-c5cnn(C)c5)ccc4cn3)ccn2)CC1
< 3.16 nM: IC50 [3] | IC50 [4] | IC50 [5] | IC50 [6]
90.2 nM: IC50 [1]
active: viability, T/C [12] 9.26% | viability, T/C [18] 5.24% | viability, T/C [22] 9.88% | viability, T/C [23] 4.62% | viability, T/C [24] 6.11% | viability, T/C [25] 5.48% | viability, T/C [26] 4.65% | viability, T/C [27] 8.79% | viability, T/C [28] 7.58% | viability, T/C [29] 5.31% | viability, T/C [30] 2.58% | viability, T/C [31] 9.55% | viability, T/C [32] 6.32% | viability, T/C [33] 5.67% | viability, T/C [34] 8.5% | viability, T/C [35] 4.73% | viability, T/C [36] 2.6% | viability, T/C [37] 1.57% | viability, T/C [38] 2.38% | viability, T/C [39] 4% | viability, T/C [40] 4.91% | viability, T/C [41] 3.1% | viability, T/C [42] 0.67%
inactive: viability, T/C [7] 61.5% | viability, T/C [8] 53.1% | viability, T/C [9] 50.2% | viability, T/C [10] 52.2% | viability, T/C [11] 35.8% | viability, T/C [13] 50.9% | viability, T/C [14] 49.9% | viability, T/C [15] 47.9% | viability, T/C [16] 58.3% | viability, T/C [17] 23.7% | viability, T/C [19] 40.4% | viability, T/C [20] 36.4% | viability, T/C [21] 15%
107 nM: IC50 [2]

C#Cc1c(F)ccc2cc(O)cc(-c3ncc4c(N5CC6CCC(C5)N6)nc(OCC56CCCN5CC(F)C6)nc4c3F)c12 (stereo not given)
> 10000 nM: IC50 (curve of compound)
inactive: viability, T/C (compound 0.0316 µM) 88.1% and 89.3% | viability, T/C (compound 0.1 µM) 88.5% and 80.7% | viability, T/C (compound 0.316 µM) 73.6% and 65.8% | viability, T/C (compound 1 µM) 68.5% and 81% | viability, T/C (compound 3.16 µM) 92% and 112% | viability, T/C (compound 10 µM) 120% and 91.5%

O=c1[nH]cc(F)c(=O)[nH]1
> 10000 nM: IC50 (curve of compound)
inactive: viability, T/C (compound 0.0316 µM) 93.5% and 94.5% | viability, T/C (compound 0.1 µM) 103% and 97.7% | viability, T/C (compound 0.316 µM) 96% and 86.2% | viability, T/C (compound 1 µM) 82.7% and 70.5% | viability, T/C (compound 3.16 µM) 84.2% and 69.9% | viability, T/C (compound 10 µM) 68.2% and 50.6%

NC(=O)C(=Cn1cnc(-c2cc(C(F)(F)F)cc(C(F)(F)F)c2)n1)c1cncnc1 + CN1CCN(c2cc(C(=O)Nc3cc4cc(-c5cnn(C)c5)ccc4cn3)ccn2)CC1
active: viability, T/C (second compound 0.316 µM, first compound 0.3 µM) 6.76% | viability, T/C (second compound 0.316 µM, first compound 0.949 µM) 4.81% | viability, T/C (second compound 0.316 µM, first compound 3 µM) 2.61% | viability, T/C (second compound 1 µM, first compound 0.00949 µM) 8.6% | viability, T/C (second compound 1 µM, first compound 0.03 µM) 7.83% | viability, T/C (second compound 1 µM, first compound 0.0949 µM) 5.77% | viability, T/C (second compound 1 µM, first compound 0.3 µM) 4.21% | viability, T/C (second compound 1 µM, first compound 0.949 µM) 5.37% | viability, T/C (second compound 1 µM, first compound 3 µM) 1.7% | viability, T/C (second compound 3.16 µM, first compound 0.00949 µM) 6.02% | viability, T/C (second compound 3.16 µM, first compound 0.03 µM) 7.42% | viability, T/C (second compound 3.16 µM, first compound 0.0949 µM) 10.8% | viability, T/C (second compound 3.16 µM, first compound 0.3 µM) 16.6% | viability, T/C (second compound 3.16 µM, first compound 0.949 µM) 4.54% | viability, T/C (second compound 3.16 µM, first compound 3 µM) 1.65% | viability, T/C (second compound 10 µM, first compound 0.00949 µM) 4.54% | viability, T/C (second compound 10 µM, first compound 0.03 µM) 4.5% | viability, T/C (second compound 10 µM, first compound 0.0949 µM) 6.08% | viability, T/C (second compound 10 µM, first compound 0.3 µM) 5.71% | viability, T/C (second compound 10 µM, first compound 0.949 µM) 1.68% | viability, T/C (second compound 10 µM, first compound 3 µM) 1.21%
inactive: viability, T/C (second compound 0.0316 µM, first compound 0.00949 µM) 79.3% | viability, T/C (second compound 0.0316 µM, first compound 0.03 µM) 67.5% | viability, T/C (second compound 0.0316 µM, first compound 0.0949 µM) 76% | viability, T/C (second compound 0.0316 µM, first compound 0.3 µM) 76.1% | viability, T/C (second compound 0.0316 µM, first compound 0.949 µM) 38.1% | viability, T/C (second compound 0.0316 µM, first compound 3 µM) 41.8% | viability, T/C (second compound 0.1 µM, first compound 0.00949 µM) 47.6% | viability, T/C (second compound 0.1 µM, first compound 0.03 µM) 53% | viability, T/C (second compound 0.1 µM, first compound 0.0949 µM) 47.4% | viability, T/C (second compound 0.1 µM, first compound 0.3 µM) 35% | viability, T/C (second compound 0.1 µM, first compound 0.949 µM) 22.3% | viability, T/C (second compound 0.1 µM, first compound 3 µM) 13.7% | viability, T/C (second compound 0.316 µM, first compound 0.00949 µM) 31.6% | viability, T/C (second compound 0.316 µM, first compound 0.03 µM) 22.2% | viability, T/C (second compound 0.316 µM, first compound 0.0949 µM) 8.26%
< 9.49 nM: IC50 [3] | IC50 [4] | IC50 [5] | IC50 [6]
681 nM: IC50 [1]
28.5 nM: IC50 [2]

CCc1c2c(nc3ccc(O)cc13)-c1cc3c(c(=O)n1C2)COC(=O)[C@]3(O)CC + CNC(=O)c1ccc(Nc2nc(OC3CCCC3)c3c(-c4ccc5nc(C)oc5c4)c[nH]c3n2)c(OC)c1
< 3.16 nM: IC50 [4] | IC50 [5] | IC50 [6]
10.7 nM: IC50 [3]
61.5 nM: IC50 [2]
326 nM: IC50 [1]
inactive: viability, T/C [7] 62.2% | viability, T/C [8] 47.5% | viability, T/C [9] 53.5% | viability, T/C [10] 46.6% | viability, T/C [11] 51.5% | viability, T/C [12] 11.4% | viability, T/C [13] 56.6% | viability, T/C [14] 51.1% | viability, T/C [15] 55.2% | viability, T/C [16] 43.1% | viability, T/C [17] 42% | viability, T/C [18] 13.9% | viability, T/C [19] 54.2% | viability, T/C [20] 49.4% | viability, T/C [21] 42.8% | viability, T/C [22] 44.4% | viability, T/C [23] 31.9% | viability, T/C [24] 21.8% | viability, T/C [25] 38.8% | viability, T/C [26] 42.2% | viability, T/C [27] 40.2% | viability, T/C [28] 34.2% | viability, T/C [29] 26.1% | viability, T/C [30] 11.1% | viability, T/C [31] 39.8% | viability, T/C [32] 40% | viability, T/C [33] 36.4% | viability, T/C [34] 39.2% | viability, T/C [35] 29.7% | viability, T/C [36] 7.37% | viability, T/C [37] 38.7% | viability, T/C [38] 41.8% | viability, T/C [39] 37.1% | viability, T/C [40] 33.5% | viability, T/C [41] 24.5%
active: viability, T/C [42] 6.76%
